# According to patent publication US12628825B2, “Methods of controlling or preventing infestation of plants by plant-parasitic nematodes of the genus Aphelenchoides spp., especially Aphelenchoides besseyi” (SYNGENTA CROP PROTECTION AG, priority 2020, dated 2026):
# Test system: Aphelenchoides besseyi
# Test: Soybean pot trial in the greenhouse, seed treatment, nematode control
# Type: in vivo
# Settings: 28-day after inoculation assessment
# Method: A soybean pot trial was carried out in the greenhouse of Holambra Field Station, state of Sao Paulo, Brazil, to evaluate the efficacy of nematicidal treatments against Aphelenchoides besseyi.
# The seeds of the susceptible soybean variety Nidera 6828 IPRO were treated (seed treatment) at the field station with the use of a slurry (spray solution) of 0.6 liter per 100 kg of seeds of soybean. The treated seeds (treatments 3-10) were then compared with the untreated checks.
# Two seeds were sowed in 1-liter pots with the Holambra Mix (25% of Holambra station soil and 75% pasteurized sand). […] The inoculation of each plant with the nematode was performed at 8 days after emergence (at the crop stage V1) by using a pipet with 1000 juveniles of Aphelenchoides per plant, directed to the base of the plant. Each plot of the trial was 1 pot containing 1 infested plant of soybean. A total of 6 replicates per treatment was used. The plants were grown in separated plastic chambers (to avoid contamination of plots) inside a greenhouse that averaged 30° C. in the day and 20° C. in the night. Plants were watered many times per day (for keeping a favourable environment for the growth of nematode population and migration to the aerial part of plants) by an automatic sprinkler system. […]
smiles,measurement,setting,value
O=C(N[C@@H]1CC[C@@H]1c1ccc(Cl)cc1Cl)c1cccnc1C(F)(F)F (racemic) [cyclobutrifluram],comparison to Avicta 500FS and Ilevo 600FS,even at the lowest rate tested of 5 g AI per 100 kg of seeds,statistically superior
same,activity against Aphelenchoides besseyi which attacked soybean,seed treatment,excellent activity
